Source: publication PMC9694488, “Amyloid beta and its naturally occurring N-terminal variants are potent activators of human and mouse formyl peptide receptor 1” (The Journal of Biological Chemistry, 2022)
“Also recorded” adds a separate entry of the source.

How the values were obtained:
FPR1 and FPR2 = conditions: cited from earlier work
hFPR1 = test: Ca2+ imaging, HEK293T transiently transfected with hFPR1; format: cell-based, human; conditions: for threshold for minimal detectable activation, hFPR1: Ca2+ imaging; for threshold for minimal detectable activation, hFPR1 / sensitivity relative to full-length Aβ1-42, hFPR1: n = 3, N = 1; for sensitivity relative to full-length Aβ1-42, hFPR1: concentration response curves
hFPR2 = test: Ca2+ imaging, HEK293T transiently transfected with hFPR2; format: cell-based, human; conditions: for threshold for minimal detectable activation, hFPR2: Ca2+ imaging, transfected HEK293T + Gα16, Calbryte 520, C1 buffer pH 7.2; for threshold for minimal detectable activation, hFPR2 / hFPR2 response concentration: n = 3, N = 1; for hFPR2 response concentration: concentration response curves
Protocol: (§2) All peptides were thawed at room temperature approximately 1 h before each functional experiment, as this time was needed to prepare the compound plates for each measurement.
(§3) HEK293T cells (ATCC) were cultured in Dulbecco’s Modified Eagle’s medium (DMEM, Biowest) supplemented with 10% (v/v) heat-inactivated fetal calf serum (FCS, Pan Biotech), 1 unit/ml penicillin-streptomycin (Biowest), and 2 mM L-glutamine (Biowest) until 80% confluence. For transfection, approximately 2000 cells were seeded in each well of poly-D-lysine–coated (PDL) (10 μg/ml in PBS, Sigma) black optical 96-well μCLEAR-plates (Greiner Bio-One). Cells were transfected after 24 h using jetPEI (Polyplus-transfection SA) with 0.125 μg of DNA plasmids encoding the respective receptors and equal amounts of a plasmid encoding the G protein subunit Gα16 since this subunit is needed to trigger FPR-dependent calcium signals in HEK293 cells ([50], [70]). The medium of transfected cells was changed 24 h after transfection. For mock transfections, the proportion of the FPR-containing plasmids were substituted by an empty pcDNA3.1 vector.
(§4) Cell population responses of transfected HEK293T cells and U87 cells were recorded using a Flexstation III microplate reader (Molecular Devices). Briefly, cells were incubated with 2 μM Calbryte 520 AM (AAC Bioquest) for 2 h at room temperature in C1 assay buffer with 5 mM glucose (Carl Roth). Before each experiment, cells were rinsed three times with C1. Experiments with HEK293T cells were conducted 48 h after transfection, while experiments with U87 cells were performed 24 h after seeding. Acquisition of baseline fluorescence was performed for 25 s before ligand application, and cell population response was measured for 125 s after application.

mFpr1 = test: Ca2+ imaging, HEK293T transiently transfected with mFpr1; format: cell-based, mouse; conditions: n = 3, N = 1; for threshold for minimal detectable activation, mFpr1: Ca2+ imaging, transfected HEK293T + Gα16, Calbryte 520, C1 buffer pH 7.2; for sensitivity relative to full-length Aβ1-42, mFpr1: concentration response curves
hFPR3 = test: Ca2+ imaging, HEK293T transiently transfected with hFPR3; conditions: for threshold for minimal detectable activation, hFPR3: Ca2+ imaging, transfected HEK293T + Gα16, Calbryte 520, C1 buffer pH 7.2, n = 3, N = 1; for activation of hFPR3: 10 nM, n = 1, N = 3 (Fig. S6C)
Protocol: as §2, §3, §4

mFpr2 = test: Ca2+ imaging, HEK293T transiently transfected with mFpr2; format: cell-based, mouse; conditions: n = 3, N = 1; for threshold for minimal detectable activation, mFpr2: Ca2+ imaging, transfected HEK293T + Gα16, Calbryte 520, C1 buffer pH 7.2; for mFpr2 response concentration: concentration response curves
Protocol: as §2, §3, §4

hFPR1, hFPR2, hFPR3 = test: Ca2+ imaging, human FPRs taken together; format: cell-based; conditions: transfected HEK293T
U87 cells [1] = test: Chemotaxis assay, U87 cells; format: cell-based, human; conditions: n = 3, N = 1; for migration (chemotaxis) of U87 cells: IncuCyte S3, ClearView plate, 24 h, 0.5% FCS; for migration of U87 cells towards receptor subtype-specific activator: 10 nM
Protocol: Cell migration assays were performed and analyzed with an IncuCyte S3 Life Cell Imaging System (EssenBio Science). […] Approximately, 1000 cells were placed into the top chamber of each well of a 96-well ClearView Plate (EssenBioscience). Chemoattractants were mixed in 200 μl medium and then placed in the corresponding bottom chambers. Image acquisition was performed hourly for 24 h on both sides of a membrane separating the top and bottom chambers. Subsequent analysis was performed using the IncuCyte S3 software.

mouse and human FPR1 = test: Ca2+ imaging, HEK293T with mouse and human FPR1 taken together; format: cell-based
human and mouse FPRs [2] = test: Ca2+ imaging, FPR-transfected HEK293T (several human and mouse FPRs taken together); format: cell-based; conditions: n = 3, N = 1; for Ca2+ responses on FPRs: 5 μM
Protocol: as §2, §3, §4

U87 cells [3] = test: Ca2+ imaging, U87 cells; conditions: for Ca2+ response of U87 cells to receptor subtype-specific activator: 10 nM, n = 3, N = 3
Protocol: Peptides in HBSS or Tris–NaCl were dissolved in an ultrasonic bath as described above. […] The Aβ17-40 peptide used throughout the main text was purchased from Anaspec/MoBiTec and validated with Aβ17-40 peptides from Sigma-Aldrich and Synpeptide. Aβ11-40 was obtained from Peptides&Elephants. […] Tert-Boc-FLFL (tBoc2) was purchased from Bachem and dissolved in DMSO at 30 mM. f-MLFYFS (Psy-SP6) and f-MAMKKL (Sal-SP4) were obtained from VCPBIO and dissolved at 10 mM in DMSO (Psy-SP6) or at 1 mM in C1 (SP4), respectively. WKWMVm-NH2 and WKWMVm-CHO were purchased from Proteogenix and VCPBIO, respectively, and dissolved as 1 mM stock solutions in C1. fMLF was purchased from Sigma-Aldrich and also dissolved at 1 mM in C1. All peptides were thawed at room temperature approximately 1 h before each functional experiment, as this time was needed to prepare the compound plates for each measurement.
U87 MG cells (CLS) were cultured in Minimum Essential medium (Biowest) supplemented with 10% (v/v) heat-inactivated FCS (Pan Biotech), 1 unit/ml penicillin-streptomycin (Biowest), 2 mM L-glutamine (Biowest), and 1 unit/ml non-essential amino acids (Biowest) until 50 to 60% confluence. For calcium imaging and immunostaining, on average 2500 cells were seeded in each well of PDL-coated (10 μg/ml in PBS, Sigma) black optical 96-well μCLEAR-plates (Greiner Bio-One).
as §4

glial cells = conditions: cited from earlier work
Source text: (§1) In summary, our study provides a systematic overview over the capability of different mouse and human FPRs to interact with Aβ in different buffer systems. To our knowledge, we are the first to report an activation of hFPR3 by Aβ and the first to identify N-abridged Aβ fragments as activators of FPRs.

FPR1 = conditions: cited from earlier work
Source text: as §1

APP/PS1 mice = conditions: cited from earlier work
Source text: The activation of PRRs by Aβ has become a recent focus in AD research because they have a special ability to potently trigger the reactive state ([14], [25]). Among these PRRs, FPRs are one of the promising targets for AD research ([12]). They belong to a small gene family of G protein–coupled receptors with three members in humans and seven in mice ([26]). FPRs are primarily expressed in the innate and adaptive immune system, where they contribute to the detection and elimination of bacterial pathogens ([27], [28], [29], [30]). However, they are also expressed in a number of cell types in the ... || In summary, our study provides a systematic overview over the capability of different mouse and human FPRs to interact with Aβ in different buffer systems. To our knowledge, we are the first to report an activation of hFPR3 by Aβ and the first to identify N-abridged Aβ fragments as activators of FPRs.

human and mouse FPRs [4] = conditions: control ligand, 10 μM; cited from earlier work
Protocol: Cell population responses of transfected HEK293T cells and U87 cells were recorded using a Flexstation III microplate reader (Molecular Devices). Briefly, cells were incubated with 2 μM Calbryte 520 AM (AAC Bioquest) for 2 h at room temperature in C1 assay buffer with 5 mM glucose (Carl Roth). Before each experiment, cells were rinsed three times with C1. Experiments with HEK293T cells were conducted 48 h after transfection, while experiments with U87 cells were performed 24 h after seeding.

U87 cells [5] = test: Ca2+ imaging cross-desensitization, U87 cells; format: cell-based, human; conditions: n = 1, N = 3
Source text: Left: Representative image of gel electrophoresis after reverse transcription polymerase chain reaction with primers for all hFPRs. Right: Quantification of complementary DNA for all FPRs obtained through reverse transcription quantitative polymerase chain reaction, n = 5, N = 2. One-way ANOVA test, Dunnett post hoc test. B, left: representative immunocytochemistry staining of U87 cells and transfected HEK293T cells with FPR subtype–specific antibodies (red) and nuclei staining (blue). For visibility, brightness and contrast were adjusted for U87 cells and HEK293T cells differently; for absolute intensity comparison pictures with equal settings for exposure time, brightness and contrast pictures are shown in Figure S5. Scale bars indicate 100 μm. Right: Quantification of the mean FPR staining in U87 cells (green) in comparison to FPR-transfected HEK293T cells (red). Analysis was performed on images acquired with the same settings. n = 2, N = 5 for U87 cells and n = 2, N = 2 for HEK293T cells. One-way ANOVA test, Tukey post hoc test. […] One-way ANOVA test, Dunnett post hoc test. […] Representative […] traces (left) and mean Ca^2+ peak responses (right) to a secondary Aβ17-40 stimulus after pre-application of SP4 or SP6 as a first stimulus, n = 1, N = 3; t test. […] One-way ANOVA test, Tukey post hoc test. All Error bars, S.D. ∗p ≤ 0.05, ∗∗p ≤ 0.01, ∗∗∗p ≤ 0.001; ns, no significance. […]

[6] = transfected HEK293T + Gα16, Calbryte 520, assay buffer C1 pH 7.2, Flexstation III, peptide stock 5 mM in DMSO
[7] = 10 μM tBoc2 co-applied with 5 μM Aβ17-40 (Fig. S6B)

In the case of `C[S+](C)[O-]` [DMSO, dimethyl sulfoxide], the “agonism at FPR1 and FPR2” value (FPR1 and FPR2) is given as “agonist for FPR1 and FPR2”.
With “Aβ1-40: Amyloid beta peptide, human WT sequence, from Anaspec/MoBiTec” the “threshold for minimal detectable activation, hFPR1” value (“threshold … hFPR1” below) (hFPR1; transfected HEK293T + Gα16, Calbryte 520, assay buffer C1 pH 7.2, peptide stock 30 μM in C1) was 3000 nM, the “threshold for minimal detectable activation, hFPR2” value (shortened to “threshold … hFPR2”) (hFPR2) was 3 µM and the “threshold for minimal detectable activation, mFpr1” value (“threshold … mFpr1” for short) (mFpr1) was 500 nM. The “threshold for minimal detectable activation, hFPR3” value (“threshold … hFPR3” below) (hFPR3) was 3 µM, the “threshold for minimal detectable activation, mFpr2” value (shortened to “threshold … mFpr2”) (mFpr2) was 5 µM and the “response of hFPRs (in addition to hFPR2)” value (hFPR1, hFPR2, hFPR3) was “all other hFPRs also responded”.
In the case of “Aβ11-40: N-abridged naturally occurring Aβ variant, from Peptides&Elephants”, the “threshold … hFPR1” value (hFPR1; [6]) is reported as 100 nM, the “sensitivity relative to full-length Aβ1-42, hFPR1” value (hFPR1) is reported as “more than 10 fold” and the “threshold … hFPR2” value (hFPR2) is reported as 1 µM. For the same compound, the hFPR2 response concentration (hFPR2) was “only responded to micromolar concentrations”, the “threshold … mFpr1” value (mFpr1) was 30 nM and the “sensitivity relative to full-length Aβ1-42, mFpr1” value (mFpr1) was “more than 10 fold”. The “threshold … hFPR3” value (hFPR3) was 1 µM, the “migration (chemotaxis) of U87 cells” value (U87 cells [1]) was “Aβ11-40 but not Aβ17-40 evoked cell migration; also recorded: only Aβ11-40 but not Aβ17-40 induced migration; also recorded: Aβ11-40– but not Aβ17-40–induced chemotaxis of U87 cells” and the “activation of mouse and human FPR1 (in words)” value (mouse and human FPR1) was “very potent activators of mouse and human FPR1, acting at nanomolar concentrations; also recorded: drastically lower concentrations than longer peptides”. For the same compound, the “Ca2+ responses on FPRs” value (human and mouse FPRs [2]) was “elicited responses on all FPRs that we could previously activate with the full-length Aβ1-42”, the “Ca2+ response of U87 cells” value (U87 cells [3]; n = 3, N = 1) was “induced a strong calcium flux; also recorded: pronounced activation of U87 cells” and the “U87 concentration response curve compared with FPR-transfected HEK293T cells” value (U87 cells [3]; n = 3, N = 1) was “clear correlation with the hFPR1 response; also recorded: remarkably similar to hFPR1”. The “activation of glial cells” value (glial cells) was “shown to activate glial cells”, the “threshold … mFpr2” value (mFpr2) was 1 µM and the mFpr2 response concentration (mFpr2) was “only responded to micromolar concentrations”. The “response of hFPRs (in addition to hFPR2)” value (hFPR1, hFPR2, hFPR3) was “all other hFPRs also responded”.
In the case of “Aβ17-40: N-abridged naturally occurring Aβ variant, from Anaspec, validated with Sigma-Aldrich and Synpeptide peptides (LVFFAEDVGSNKGAIIGLMVGGVV; Amyloid-beta protein 40; UniProt P05067 688-711, looked up, fragment)”, the “threshold … hFPR1” value (hFPR1; [6]) is reported as 100 nM, the “sensitivity relative to full-length Aβ1-42, hFPR1” value (hFPR1) is reported as “more than 10 fold” and the “threshold … hFPR2” value (hFPR2) is reported as 1 µM. The hFPR2 response concentration (hFPR2) was “only responded to micromolar concentrations”, the “threshold … mFpr1” value (mFpr1) was 30 nM and the “sensitivity relative to full-length Aβ1-42, mFpr1” value (mFpr1) was “more than 10 fold”. The “threshold … hFPR3” value (hFPR3) was 1 µM, the “migration (chemotaxis) of U87 cells” value (U87 cells [1]) was “Aβ11-40 but not Aβ17-40 evoked cell migration; also recorded: only Aβ11-40 but not Aβ17-40 induced migration; also recorded: Aβ11-40– but not Aβ17-40–induced chemotaxis of U87 cells” and the “activation of mouse and human FPR1 (in words)” value (mouse and human FPR1) was “very potent activators of mouse and human FPR1, acting at nanomolar concentrations; also recorded: drastically lower concentrations than longer peptides”. For the same compound, the “susceptibility of FPR responses to manufacturer-dependent effects” value (human and mouse FPRs [2]; 5 μM Aβ17-40 from Anaspec, Synpeptide, Sigma-Aldrich) was “less susceptible to manufacturer-dependent effects than full length Aβ”, the “Ca2+ responses on FPRs” value (human and mouse FPRs [2]) was “elicited responses on all FPRs that we could previously activate with the full-length Aβ1-42” and the “Ca2+ response of U87 cells” value (U87 cells [3]; n = 3, N = 1) was “induced a strong calcium flux; also recorded: pronounced activation of U87 cells”. For the same compound, the “U87 concentration response curve compared with FPR-transfected HEK293T cells” value (U87 cells [3]; n = 3, N = 1) was “clear correlation with the hFPR1 response; also recorded: remarkably similar to hFPR1”, the “activation of glial cells” value (glial cells) was “shown to activate glial cells” and the “threshold … mFpr2” value (mFpr2) was 1 µM. The mFpr2 response concentration (mFpr2) was “only responded to micromolar concentrations” and the “response of hFPRs (in addition to hFPR2)” value (hFPR1, hFPR2, hFPR3) was “all other hFPRs also responded”.
For “Aβ17-43: Aβ fragment of earlier studies (LVFFAEDVGSNKGAIIGLMVGGVVIAT; Amyloid-beta protein 42; UniProt P05067 688-714, looked up, fragment)”, the “activation of human glial cells” value (glial cells; human glial cells) is listed as “only lead to a partial activation of human glial cells”.
In the case of “Tert-Boc-FLFL [tBoc2, reference compound]”, the “antagonism at FPR1” value (hFPR1; [7]) is reported as “competitive antagonist of FPR1 and FPR2”, the “antagonism at FPR2” value (hFPR2; [7]) is reported as “competitive antagonist of FPR1 and FPR2” and the “antagonism at FPR3” value (hFPR3; 10 μM tBoc2 co-applied with 5 μM Aβ17-40, n = 1, N = 2) is reported as “does not inhibit FPR3”. The “inhibition of U87 Ca2+ response to Aβ11-40 / Aβ17-40” value (U87 cells [3]; 10 μM tBoc2 vs 5 μM Aβ11-40 or Aβ17-40, n = 3, N = 1) was “completely abolished the responses”, the binding preference (FPR1) was “preferentially binds to FPR1” and the “effect on microglia reactivity, neuronal pathology and cognition” value (APP/PS1 mice) was “reduced microglia reactivity, decreased neuronal pathology, and improved cognitive performance”.
In the case of WKWMVm-CHO, the “activation of human and mouse FPRs” value (human and mouse FPRs [4]) is listed as “potent activators of all three human and mouse FPRs”.
In the case of WKWMVm-NH2, the “activation of human and mouse FPRs” value (human and mouse FPRs [4]) is given as “potent activators of all three human and mouse FPRs”.
With f-MAMKKL [SP4, reference compound] the “effect of pre-application on U87 Ca2+ response to secondary Aβ17-40 stimulus” value (U87 cells [5]) was “not influenced by pre-application of the FPR2-specific agonist SP4”, the “activation of hFPR3” value (hFPR3) was “would not activate hFPR3” and the “migration of U87 cells towards receptor subtype-specific activator” value (U87 cells [1]) was “do not respond to the hFPR2 agonist SP4; also recorded: not towards the FPR2-specific SP4”. The “Ca2+ response of U87 cells to receptor subtype-specific activator” value (U87 cells [3]) was “not to the hFPR2-specific SP4 stimulus”.
In the case of f-MLFYFS [SP6, reference compound], the “effect of pre-application on U87 Ca2+ response to secondary Aβ17-40 stimulus” value (U87 cells [5]) is reported as “abolished by the FPR1 activator SP6; also recorded: absent after pre-application of the FPR1-specific agonist SP6”, the “activation of hFPR3” value (hFPR3) is reported as “would not activate hFPR3” and the “migration of U87 cells towards receptor subtype-specific activator” value (U87 cells [1]) is reported as “migrate towards the hFPR1-stimulus SP6; also recorded: only migrated towards the FPR1-specific SP6”. For the same compound, the “Ca2+ response of U87 cells to receptor subtype-specific activator” value (U87 cells [3]) was “U87 cells respond to the potent hFPR1 activator SP6; also recorded: only responded to the hFPR1-specific SP6 stimulus with a calcium signal”.
